Experiments:
[1] = molecular target: T1, fusion protein of TG1019 protein and Giα1 (351Cys→Ile) (Homo sapiens, UniProt P63096+Q8TDS5, C351I/D111G/K206E/T295A); assay: [35S]GTPγS binding to membrane fraction containing TG1019-Giα1 (351Cys→Ile) fusion protein (ligand identification); type: biochemical; conditions: membrane fraction with TG1019-Giα1 (351Cys→Ile) fusion protein
T1 construct: made in house; host or cells: Sf9 insect cells (baculovirus, pVL1392), membrane fraction
Excerpt: (§1) As stated in Example 1, it is concluded that TG1019 protein is a G-protein coupled receptor. Therefore, using a membrane fraction containing fused protein of TG1019 and G-protein, a ligand is identified as follows, according to a method for detecting a ligand-dependent binding with GTPγS (guanosine 5′-O-(3-thiotriphosphate)) [Wenzel-Seifert, et al., Mol. Pharmacom., Vol. 58, pp. 954-966, 2000; Bahia, et al., Biochemistry, Vol. 37, pp. 11555-11562, 1998].
Sf9 cells were inoculated onto a 10 cm Petri dish coated with collagen to about 70% confluence, and added thereto were Virus solution III (100 μl) obtained above and 12 ml of a culture medium, and the mixture was cultured at 27° C. for 4 days. The obtained cells were washed with a cooled PBS (Phosphate buffered saline, pH 7.4), and suspended in 3.6 ml of a cooled solution buffer [20 mM Tris-HCl, pH 7.5, 1 mM EDTA, 0.2 mM phenylmethylsulfonyl fluoride, 10 μg/ml pepstatin, 10 μg/ml leupeptin, and 2 μg/ml aprotinin], and the cells were homogenized by means of a Teflon homogenizer. This cell homogenate was centrifuged (600×g, 10 minutes), and the resultant supernatant was further centrifuged (50,000×g, 20 minutes). The obtained sediments were suspended in 450 μl of a cooled reaction buffer [20 mM Tris-HCl, pH 7.5, 50 mM sodium chloride, 10 mM magnesium chloride] by means of a Teflon homogenizer, to prepare a membrane fraction containing a fusion protein.
The membrane fraction (450 μl) obtained above (2) was suspended in a reaction buffer (7.54 ml), and added thereto was GDP (10 mM, 10 μl). To 160 μl of this solution was added 20 μl of a test compound. After incubating the mixture at 30° C. for 10 minutes, 20 μl of [^35S] GTPγS (5 nM, 5 nCi/μl: available from Amersham Pharmacia Biotech) was added to start reaction. After incubating the mixture at 30° C. for one hour, the reaction was terminated by filtration through a glass filter (UniFilter-96GF/B, available from Packard). The filter was washed with 200 μl of a cooled reaction buffer for 3 times, and an amount of the [^35S] GTPγS (a binding amount to the membrane fraction) on the filter was measured by liquid scintillation counting. From the thus measured [^35S] GTPγS binding amount was subtracted a nonspecific binding amount (a binding amount measured in the presence of 10 μM GTPγS), to obtain a specific binding amount of [^35S ] GTPγS.

[2] = molecular target: T2, fusion protein of TG1019 protein and Gqα (Homo sapiens, UniProt Q8TDS5, D111G/K206E/T295A); assay: [35S]GTPγS binding to membrane fraction containing TG1019-Gqα fusion protein; type: biochemical; conditions: membrane fraction with TG1019-Gqα fusion protein; increase small compared to Giα
T2 construct: made in house; host or cells: Sf9 insect cells (baculovirus, pVL1392), membrane fraction
T2 sequence (Q8TDS5 with tags, fused parts or gaps D111G/K206E/T295A): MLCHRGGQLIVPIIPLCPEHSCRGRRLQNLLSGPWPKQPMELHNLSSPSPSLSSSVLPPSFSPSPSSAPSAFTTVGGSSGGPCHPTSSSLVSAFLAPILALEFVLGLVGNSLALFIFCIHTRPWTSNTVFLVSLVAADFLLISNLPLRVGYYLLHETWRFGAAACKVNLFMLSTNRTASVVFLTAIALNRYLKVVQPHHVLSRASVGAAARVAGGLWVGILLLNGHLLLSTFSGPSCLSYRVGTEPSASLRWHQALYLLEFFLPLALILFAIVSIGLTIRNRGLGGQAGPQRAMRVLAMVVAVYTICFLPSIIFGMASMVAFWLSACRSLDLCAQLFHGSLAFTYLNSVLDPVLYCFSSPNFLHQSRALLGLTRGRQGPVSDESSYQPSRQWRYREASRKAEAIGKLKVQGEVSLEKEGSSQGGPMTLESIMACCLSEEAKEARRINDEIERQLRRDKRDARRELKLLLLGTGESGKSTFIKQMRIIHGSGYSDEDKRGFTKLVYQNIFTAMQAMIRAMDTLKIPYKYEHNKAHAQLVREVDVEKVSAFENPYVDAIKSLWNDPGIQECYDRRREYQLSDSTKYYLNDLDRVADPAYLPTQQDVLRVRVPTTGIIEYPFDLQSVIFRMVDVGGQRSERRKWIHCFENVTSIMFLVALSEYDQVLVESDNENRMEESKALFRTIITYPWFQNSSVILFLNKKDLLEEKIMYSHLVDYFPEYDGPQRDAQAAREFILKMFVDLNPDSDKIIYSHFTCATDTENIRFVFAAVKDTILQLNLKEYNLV
Excerpt: as §1
Sf9 cells were inoculated onto a 10 cm Petri dish coated with collagen to about 70% confluence, and added thereto were Virus solution III (100 μl) obtained above and 12 ml of a culture medium, and the mixture was cultured at 27° C. for 4 days. […]
The membrane fraction (450 μl) obtained above (2) was suspended in a reaction buffer (7.54 ml), and added thereto was GDP (10 mM, 10 μl). […] GTPγS (a binding amount to the membrane fraction) on the filter was measured by liquid scintillation counting. From the thus measured [^35S] GTPγS binding amount was subtracted a nonspecific binding amount (a binding amount measured in the presence of 10 μM GTPγS), to obtain a specific binding amount of [^35S ] […]

[3] = molecular target: T3, fusion protein of TG1019 protein and Giα1 (Homo sapiens, UniProt P63096+Q8TDS5, C351I/D111G/K206E/T295A); assay: Antagonist assay: inhibition of 5-oxo-ETE-stimulated G-protein activation ([35S]GTPγS binding) of TG1019-Giα1 fusion membrane fraction; type: biochemical; conditions: inhibition of G-protein activating effect of TG1019 by 5-oxo-ETE 0.1 μM
T3 construct: made in house; host or cells: Sf9 insect cells (baculovirus, pVL1392), membrane fraction
T3 sequence (Q8TDS5+P63096 fused Q8TDS5:D111G/Q8TDS5:K206E/Q8TDS5:T295A/P63096:C351I): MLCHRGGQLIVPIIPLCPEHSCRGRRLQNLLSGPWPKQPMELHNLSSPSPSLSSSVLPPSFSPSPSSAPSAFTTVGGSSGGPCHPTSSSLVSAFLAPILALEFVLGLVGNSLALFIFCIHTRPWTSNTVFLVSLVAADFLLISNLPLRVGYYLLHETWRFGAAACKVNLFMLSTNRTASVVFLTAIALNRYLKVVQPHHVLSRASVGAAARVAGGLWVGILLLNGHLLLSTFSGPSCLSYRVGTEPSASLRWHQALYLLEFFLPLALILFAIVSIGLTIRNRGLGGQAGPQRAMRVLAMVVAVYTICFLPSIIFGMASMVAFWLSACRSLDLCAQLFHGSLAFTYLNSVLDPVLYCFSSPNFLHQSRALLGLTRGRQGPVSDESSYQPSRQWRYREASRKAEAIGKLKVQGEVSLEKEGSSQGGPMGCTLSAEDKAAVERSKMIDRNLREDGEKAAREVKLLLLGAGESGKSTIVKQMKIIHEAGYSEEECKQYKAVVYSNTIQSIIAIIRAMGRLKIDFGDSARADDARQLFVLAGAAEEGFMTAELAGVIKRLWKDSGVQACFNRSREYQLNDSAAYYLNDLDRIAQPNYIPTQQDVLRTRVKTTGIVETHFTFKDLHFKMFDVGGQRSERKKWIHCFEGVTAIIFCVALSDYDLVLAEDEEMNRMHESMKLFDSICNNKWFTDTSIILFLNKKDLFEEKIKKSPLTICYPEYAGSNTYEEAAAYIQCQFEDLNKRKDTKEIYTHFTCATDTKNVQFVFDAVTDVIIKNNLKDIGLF
Protocol: In the presence of 5-oxo-ETE (a ligand which acts as an agonist) and a test compound, a G-protein activating effect of TG1019 protein based on 5-oxo-ETE stimulation was detected, and an antagonistic effect of the test compound was examined.
Detection of the G-protein activation was carried out in a similar manner as in Example 3 (3) mentioned above, using a membrane fraction containing a fusion protein of TG1019 protein and Giα1 and a labeled GTPγS.
Specifically, a membrane fraction (450 μl) containing a fusion protein of TG1019 protein and Giα1 was suspended in a reaction solution (7.54 ml), and added thereto was 10 μl of GDP (10 mM). To 160 μl of this solution were added 5-oxo-ETE (the final concentration of 0.1 μM) and a test compound at various concentrations (0M, 10^−7M -10^−5M), and the mixture was incubated at 30° C. for 10 minutes (a total amount of 5-oxo-ETE and the test compound: 20 μl).
Added thereto was 20 μl of [^35S] GTPγS to start a reaction. After incubation at 30° C. for one hour, the reaction was terminated by filtration through a glass filter.
An amount of the [^35S] GTPγS (a binding amount to the membrane fraction) on the filter was measured by liquid scintillation counting. From the thus measured [^35S] GTPγS amount was subtracted a nonspecific binding amount (a binding amount measured in the presence of 10 μM GTPγS), to obtain a specific binding amount.

[4] = tested on: PC3 human prostate cancer cells; assay: Apoptosis analysis (annexin V / PI flow cytometry) in PC3 cells; type: cell-based; conditions: 20 μl of 1 mM DHA in 2 ml, 2 hours
Protocol: PC3 human prostate cancer cells, which had been cultured in RPMI1640 culture medium supplemented with 10% fetal bovine serum were dissociated by trypsin-EDTA solution (GibcoBRL), and suspended in RPMI1640 culture medium supplemented with 0.5% fetal bovine serum. The cells were plated onto a 6 cm Petri dish to 2×10^5 cells/dish, and cultured at 37° C. for 18 hours in a CO2 incubator. The supernatant was removed and 1980 μl of the same medium was added, and 20 μl of 1 mM DHA was further added thereto, and the mixture was cultured at 37° C. for 2 hours in a CO2 incubator.
In addition, as a test in the presence of 5-oxo-ETE, 1960 μl of RPMI1640 culture medium supplemented with 0.5% fetal bovine serum was added, and 20 μl of a 100 μM 5-oxo-ETE solution and 20 μl of a 1 mM DHA solution were further added thereto, and the cells were cultured in a similar manner as described above.
The adhered cells were removed by a cell scraper, transferred to a 1.5 ml tube, and centrifuged at 800×g for 5 minutes at 4° C., to collect suspended and adhered cells. […] The cells were suspended in 100 μl of a FITC-Annexin solution, and after 15 minutes of reaction under light-shielded condition at room temperature, 300 μl of Binding buffer was added thereto, and the FITC-Annexin bound to the cells and propidium iodide (PI) uptake into the cells were measured, by means of flow cytometer [Becton Dickinson].

[5] = tested on: TG1019 (5-oxo-ETE receptor); assay: Intracellular calcium level in CHO cells stably expressing TG1019; type: cell-based, human; conditions: FuraII 340/380 nm ratio
Protocol: (1) Preparation of cells stably expressing TG1019 Cells stably expressing TG1019 (the receptor protein of the present invention) and cells not expressing TG1019 were prepared by introducing to CHO cells the TG1019 protein expression vector prepared in Example 5 and the control vector, as described below.
The cells stably expressing TG1019 prepared in the above section (1) was incubated in DMEM/F12 medium supplemented with 10% fetal bovine serum at 37° C. in a CO2 incubator. To the cells which were 80 to 90% confluent, was added a cell dissociation buffer (Cell Dissociation Buffer Enzyme-free PBS-based, available from Invitrogen), and cells were dissociated by incubating at 37° C. for 5 minutes. […]
The cells after loading were centrifuged once with an assay buffer, to remove supernatant, and then, they were suspended in an assay buffer to have a concentration of 3.7 to 6.3×10^6 cells/ml. This cell suspension was portioned into a 96 well plate by 80 μl/well, and the plate was set in a fluorescence measuring device (FDSS6000, [Hamamatsu Photonics]), and the reaction was started by adding a solution containing 5-oxo-ETE or 5-HETE in a 5 fold concentration dissolved in an assay buffer, by 20 μl/well. The measurement was done by measuring fluorescence intensity at 510 nm, with excitation wavelength of 340 nm and 380 nm.

T1 sequence (Q8TDS5+P63096 fused Q8TDS5:D111G/Q8TDS5:K206E/Q8TDS5:T295A/P63096:C351I): as above

SMILES | specific binding amount of [35S]GTPγS [1] | IC50 [3] [µM] | other results
CCCCC/C=C\C/C=C\C/C=C\C=C\C(CCCC(=O)O)OO (centres unmarked) [5-HPETE, 5-hydroperoxyeicosa-6E,8Z,11Z,14Z-tetraenoic acid] | increased in a concentration-dependent manner |  | specific binding amount of [35S]GTPγS [2]: increased
CCCCC/C=C\C/C=C\C/C=C\CCCCCCC(=O)O [Dihomo-γ-linolenic accid] |  | 3.7 ± 0.7 | 
CC/C=C\C/C=C\C/C=C\C/C=C\C/C=C\C/C=C\CCC(=O)O [DHA, 4Z, 7Z, 10Z, 13Z, 16Z, 19Z-docosahexaenoic acid] |  | 1.6 ± 0.2 | induction of apoptosis (cells annexin positive, PI uptake negative) [4]: induces apoptosis of PC3 cells
CC/C=C\C/C=C\C/C=C\CCCCCCCCCC(=O)O [Eicosa-11Z, 14Z, 17Z-trienoic acid] |  | 5.1 ± 0.6 | 
CCCCCCCCC#CCC#CCC#CCCCC(=O)O [ETI, 5,8,11-eicosatriynoic acid] | increased in a concentration-dependent manner |  | 
CCCCCCCC/C=C\C/C=C\C=C\C(O)CCCC(=O)O (centres unmarked) [5-HETrE, 5-hydroxyeicosa-6E,8Z,11Z-trienoic acid] | increased in a concentration-dependent manner |  | 
CCCCC/C=C\C/C=C\C/C=C\C/C=C\CCCC(=O)O [arachidonic acid] | increased in a concentration-dependent manner |  | 
CCCCCCCC/C=C\C/C=C\C/C=C\CCCC(=O)O [eicosa-5Z,8Z,11Z-trienoic acid] | increased in a concentration-dependent manner |  | 
CC/C=C\C/C=C\C/C=C\C/C=C\C/C=C\CCCC(=O)O [EPA, 5Z, 8Z, 11Z, 14Z, 17Z-eicosapentaenoic acid] |  | 6 ± 1.2 | 
CCCCC/C=C\C/C=C\C/C=C\C=C\C(O)CCCC(=O)O (centres unmarked) [5-HETE, 5-hydroxyeicosa-6E,8Z,11Z,14Z-tetraenoic acid] | increased in a concentration-dependent manner |  | change in intracellular calcium level [5]: increase in intracellular calcium level
CCCCCCCCCCC/C=C\C/C=C\CCCC(=O)O [eicosa-5Z,8Z-dienoic acid] | increased in a concentration-dependent manner |  | 

— patent US7527935B2, “G-protein coupled receptor having eicosanoid as ligand and gene thereof” (Mitsubishi Tanabe Pharma Corporation, priority 2002, dated 2009)
